We go through twelve compounds from patent publication US20230265116A1, “DEGRADATION OF (EGFR) BY CONJUGATION OF EGFR INHIBITORS WITH E3 LIGASE LIGAND AND METHODS OF USE” (BEIGENE, LTD., priority 2020, published 2023).

SMILES strings stand for the structures.

Assay [1] has as its target T1, EGFR L858R/T790M/C797S (BaF3-LTC cells) (Homo sapiens, UniProt P00533, C797S/L858R/T790M).
T1 construct: expressed in transfected cells; host or cells: BaF3
In words: EGFR degradation HTRF assay, BaF3-LTC cells. It is filed as cell-based. The conditions noted are these: BaF3-LTC cells; for DC50: EGFR degradation, IC50 (DC50) from curve fit, read-out: DC50(nM) BaF3-LTC; for Dmax: maximum percentage of inhibition (degradation), read-out: Dmax (%) BaF3-LTC. Put shortly: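 EGFR remaining after a 16 h, 37 °C exposure (8 doses, 5-fold steps from 10 uM final, 0.2% DMSO) was quantified by HTRF antibodies in cell lysate. Percent inhibition relative to DMSO control was fitted by four-parameter logistic to give DC50; Dmax denotes maximal degradation.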

Assay [2] deals with EGFR Del19/T790M/C797S (H1975-clone #28). In words: EGFR degradation HTRF assay, H1975-clone #28 DTC cells. The conditions noted are these: H1975 # 28 DTC cells; for DC50: EGFR degradation, IC50 (DC50) from curve fit, read-out: DC50(nM) H1975 # 28 DTC; for Dmax (%) H1975 # 28 DTC: maximum percentage of inhibition (degradation). In kind it is cell-based. In short, it runs like this:
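Read-out is an HTRF EGFR signal (337 nm excitation, 665/620 nm) from lysates of mutant-EGFR H1975 clones in which only the exogenous EGFR survives knockout. Treatment ran 16h at 37° C. from 10 uM final downward in 5-fold steps. DC50 comes from a logistic fit and Dmax is the maximal degradation.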
On the technique in general: Time-resolved FRET reads energy transfer from a long-lived donor to a nearby acceptor.

T1 sequence (P00533 25-1210 T790M/C797S/L858R): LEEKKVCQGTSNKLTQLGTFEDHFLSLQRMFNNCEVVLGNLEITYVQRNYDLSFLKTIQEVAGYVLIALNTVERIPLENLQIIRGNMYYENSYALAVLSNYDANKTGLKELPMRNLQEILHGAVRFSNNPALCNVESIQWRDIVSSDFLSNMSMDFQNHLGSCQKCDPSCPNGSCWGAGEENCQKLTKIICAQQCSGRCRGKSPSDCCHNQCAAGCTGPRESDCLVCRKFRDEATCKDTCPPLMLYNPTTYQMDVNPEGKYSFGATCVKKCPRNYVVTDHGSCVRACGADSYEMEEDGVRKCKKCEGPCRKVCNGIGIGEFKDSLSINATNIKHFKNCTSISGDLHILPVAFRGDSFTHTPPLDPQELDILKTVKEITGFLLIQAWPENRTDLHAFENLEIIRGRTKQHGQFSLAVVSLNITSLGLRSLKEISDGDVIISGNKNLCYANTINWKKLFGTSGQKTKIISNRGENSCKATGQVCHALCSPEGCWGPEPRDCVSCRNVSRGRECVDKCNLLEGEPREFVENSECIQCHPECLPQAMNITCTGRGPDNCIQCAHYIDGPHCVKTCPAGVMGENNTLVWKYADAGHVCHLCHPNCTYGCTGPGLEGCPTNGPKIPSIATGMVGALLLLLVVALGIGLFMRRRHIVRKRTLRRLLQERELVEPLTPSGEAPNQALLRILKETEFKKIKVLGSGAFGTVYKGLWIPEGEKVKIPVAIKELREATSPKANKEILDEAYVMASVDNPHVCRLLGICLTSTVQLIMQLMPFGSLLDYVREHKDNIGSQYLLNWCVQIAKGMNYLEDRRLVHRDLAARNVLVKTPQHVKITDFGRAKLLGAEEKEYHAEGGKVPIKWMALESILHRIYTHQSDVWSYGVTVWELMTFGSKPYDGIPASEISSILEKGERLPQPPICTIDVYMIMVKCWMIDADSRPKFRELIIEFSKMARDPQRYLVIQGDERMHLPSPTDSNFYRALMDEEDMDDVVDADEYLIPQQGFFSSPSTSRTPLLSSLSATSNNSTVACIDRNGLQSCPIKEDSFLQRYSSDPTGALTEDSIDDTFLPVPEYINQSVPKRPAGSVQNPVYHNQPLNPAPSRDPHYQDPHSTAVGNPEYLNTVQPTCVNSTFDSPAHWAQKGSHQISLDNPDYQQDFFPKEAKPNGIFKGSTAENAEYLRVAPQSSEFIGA

On to `CCOc1cc(N2CCC(N3CCN(CCc4c(F)cc5c(oc(=O)n5C5CCC(=O)NC5=O)c4F)CC3)CC2)c(CC)cc1Nc1ncc(Br)c(Nc2ccc3c(=O)n(CC)ncc3c2P(C)(C)=O)n1` (stereo not drawn) [Example 629, 3-(6-(2-(4-(1-(4-((5-bromo-4-((5-(dimethylphosphoryl)-2-ethyl-1-oxo-1,2-dihydrophthalazin-6-yl)amino)pyrimidin-2-yl)amino)-5-ethoxy-2-ethylphenyl)piperidin-4-yl)piperazin-1-yl)ethyl)-5,7-difluoro-2-oxobenzo[d]oxazol-3(2H)-yl)piperidine-2,6-dione], for which, in assay [1], the 50% degradation concentration (DC50) came to 7.66 nM and the maximal degradation (Dmax) was determined as 89.5%. In assay [2], the DC50 stood at 0.965 nM and the “Dmax (%) H1975 # 28 DTC” value came to 71.58%.
In the same order, the values of `CCOc1cc(N2CCC(N3CCN(CCCc4cccc5c4oc(=O)n5C4CCC(=O)NC4=O)CC3)CC2)c(CC)cc1Nc1ncc(Br)c(Nc2ccc3nc(CC)ccc3c2P(C)(C)=O)n1` (stereo not drawn) [Example 630, 3-(7-(3-(4-(1-(4-((5-bromo-4-((5-(dimethylphosphoryl)-2-ethylquinolin-6-yl)amino)pyrimidin-2-yl)amino)-5-ethoxy-2-ethylphenyl)piperidin-4-yl)piperazin-1-yl)propyl)-2-oxobenzo[d]oxazol-3(2H)-yl)piperidine-2,6-dione] are 8.65 nM, 91%, 1.14 nM and 72.34%.
In the same order, the values of `CCc1ccc2c(P(C)(C)=O)c(Nc3nc(Nc4cc(C5CC5)c(N5CCC(N6CCN(CCc7cccc8c7oc(=O)n8C7CCC(=O)NC7=O)CC6)CC5)cc4OC)ncc3Br)ccc2n1` (stereo not drawn) [Example 631, 3-(7-(2-(4-(1-(4-((5-bromo-4-((5-(dimethylphosphoryl)-2-ethylquinolin-6-yl)amino)pyrimidin-2-yl)amino)-2-cyclopropyl-5-methoxyphenyl)piperidin-4-yl)piperazin-1-yl)ethyl)-2-oxobenzo[d]oxazol-3(2H)-yl)piperidine-2,6-dione] are 9.33 nM, 86.8%, 1.04 nM and 82.5%.
As to `CCOc1cc(N2CCC(N3CCN(CCCCc4cc(F)cc5c4oc(=O)n5C4CCC(=O)NC4=O)CC3)CC2)c(CC)cc1Nc1ncc(Br)c(Nc2ccc3nc(CC)ccc3c2P(C)(C)=O)n1` (stereo not drawn) [Example 632, 3-(7-(4-(4-(1-(4-((5-bromo-4-((5-(dimethylphosphoryl)-2-ethylquinolin-6-yl)amino)pyrimidin-2-yl)amino)-5-ethoxy-2-ethylphenyl)piperidin-4-yl)piperazin-1-yl)butyl)-5-fluoro-2-oxobenzo[d]oxazol-3(2H)-yl)piperidine-2,6-dione], in assay [1], the DC50 is 14.2 nM and the greatest degradation seen (Dmax) worked out at 95.1%. Moreover, in assay [2], the 50% degradation concentration (DC50) turned out to be 2.2 nM and the “Dmax (%) H1975 # 28 DTC” value was 81.77%.
In the same order, the values of `CCc1cc(Nc2ncc(Br)c(Nc3ccc4nc(NC5CC5)ccc4c3P(C)(C)=O)n2)c(OC)cc1N1CCC(N2CCN(CCc3ccc4c(c3)oc(=O)n4C3CCC(=O)NC3=O)CC2)CC1` (stereo not drawn) [Example 633, 3-(6-(2-(4-(1-(4-((5-bromo-4-((2-(cyclopropylamino)-5-(dimethylphosphoryl)quinolin-6-yl)amino)pyrimidin-2-yl)amino)-2-ethyl-5-methoxyphenyl)piperidin-4-yl)piperazin-1-yl)ethyl)-2-oxobenzo[d]oxazol-3(2H)-yl)piperidine-2,6-dione] are 5.12 nM, 91.7%, 0.737 nM and 70.09%.
As to `CCOc1cc(N2CCC(N3CCN(CCc4c(C)ccc5c4oc(=O)n5C4CCC(=O)NC4=O)CC3)CC2)c(CC)cc1Nc1ncc(Br)c(Nc2ccc3nc(CC)ccc3c2P(C)(C)=O)n1` (stereo not drawn) [Example 634, 3-(7-(2-(4-(1-(4-((5-bromo-4-((5-(dimethylphosphoryl)-2-ethylquinolin-6-yl)amino)pyrimidin-2-yl)amino)-5-ethoxy-2-ethylphenyl)piperidin-4-yl)piperazin-1-yl)ethyl)-6-methyl-2-oxobenzo[d]oxazol-3(2H)-yl)piperidine-2,6-dione], in assay [1], the DC50 came to 4.47 nM and the greatest degradation seen (Dmax) was determined as 88%. Also, in assay [2], the DC50 turned out to be 0.985 nM and the “Dmax (%) H1975 # 28 DTC” value was determined as 81.71%.
Take `CCOc1cc(N2CCC(N3CCN(CCc4c(F)cc5c(oc(=O)n5C5CCC(=O)NC5=O)c4F)CC3)CC2)c(CC)cc1Nc1ncc(Br)c(Nc2ccc3nc(CC)ccc3c2P(C)(C)=O)n1` (stereo not drawn) [Example 635, 3-(6-(2-(4-(1-(4-((5-bromo-4-((5-(dimethylphosphoryl)-2-ethylquinolin-6-yl)amino)pyrimidin-2-yl)amino)-5-ethoxy-2-ethylphenyl)piperidin-4-yl)piperazin-1-yl)ethyl)-5,7-difluoro-2-oxobenzo[d]oxazol-3(2H)-yl)piperidine-2,6-dione]: in assay [1], the half-maximal degradation concentration (DC50) amounted to 11 nM and the Dmax stood at 90.7%. Further, in assay [2], the 50% degradation concentration (DC50) was 1.37 nM and the “Dmax (%) H1975 # 28 DTC” value was determined as 77.57%.
On to `CCOc1cc(N2CCC(N3CCN(CCCc4cc(C)cc5c4oc(=O)n5C4CCC(=O)NC4=O)CC3)CC2)c(CC)cc1Nc1ncc(Br)c(Nc2ccc3nc(CC)ccc3c2P(C)(C)=O)n1` (stereo not drawn) [Example 636, 3-(7-(3-(4-(1-(4-((5-bromo-4-((5-(dimethylphosphoryl)-2-ethylquinolin-6-yl)amino)pyrimidin-2-yl)amino)-5-ethoxy-2-ethylphenyl)piperidin-4-yl)piperazin-1-yl)propyl)-5-methyl-2-oxobenzo[d]oxazol-3(2H)-yl)piperidine-2,6-dione], for which, in assay [1], the half-maximal degradation concentration (DC50) was 11 nM and the Dmax is 92.3%. Also, in assay [2], the DC50 was 1.52 nM and the “Dmax (%) H1975 # 28 DTC” value was determined as 79.04%.
For `CCOc1cc(N2CCC(N3CCN(C(=O)COc4cccc5c4n(C)c(=O)n5C4CCC(=O)NC4=O)CC3)CC2)c(CC)cc1Nc1ncc(Br)c(Nc2ccc3nc(CC)ccc3c2P(C)(C)=O)n1` (stereo not drawn) [Example 637, 3-(4-(2-(4-(1-(4-((5-bromo-4-((5-(dimethylphosphoryl)-2-ethylquinolin-6-yl)amino)pyrimidin-2-yl)amino)-5-ethoxy-2-ethylphenyl)piperidin-4-yl)piperazin-1-yl)-2-oxoethoxy)-3-methyl-2-oxo-2,3-dihydro-1H-benzo[d]imidazol-1-yl)piperidine-2,6-dione], in assay [1], the DC50 amounted to 5.39 nM and the greatest degradation seen (Dmax) came out at 92.9%. For the same compound, in assay [2], the half-maximal degradation concentration (DC50) was 0.354 nM and the “Dmax (%) H1975 # 28 DTC” value was 69.46%.
On the same counts, the results for `CCOc1cc(N2CCC(N3CCN(C(=O)CN4CCN(c5cc(F)c([C@H]6CCC(=O)NC6=O)c(F)c5)CC4)CC3)CC2)c(CC)cc1Nc1ncc(Br)c(Nc2ccc3c(=O)n(CC)ncc3c2P(C)(C)=O)n1` [Example 639, (R)-3-(4-(4-(2-(4-(1-(4-((5-bromo-4-((5-(dimethylphosphoryl)-2-ethyl-1-oxo-1,2-dihydrophthalazin-6-yl)amino)pyrimidin-2-yl)amino)-5-ethoxy-2-ethylphenyl)piperidin-4-yl)piperazin-1-yl)-2-oxoethyl)piperazin-1-yl)-2,6-difluorophenyl)piperidine-2,6-dione] are 4.06 nM, 94.3%, 0.71 nM and 86.93%.
In the same order, the values of `CCOc1cc(N2CCC(N3CCN(CCC4CCN(c5cc(F)c6c(c5)n(CC)c(=O)n6C5CCC(=O)NC5=O)CC4)CC3)CC2)c(CC)cc1Nc1ncc(Br)c(Nc2ccc3c(=O)n(CC)ncc3c2P(C)(C)=O)n1` (stereo not drawn) [Example 640, 3-(5-(4-(2-(4-(1-(4-((5-bromo-4-((5-(dimethylphosphoryl)-2-ethyl-1-oxo-1,2-dihydrophthalazin-6-yl)amino)pyrimidin-2-yl)amino)-5-ethoxy-2-ethylphenyl)piperidin-4-yl)piperazin-1-yl)ethyl)piperidin-1-yl)-3-ethyl-7-fluoro-2-oxo-2,3-dihydro-1H-benzo[d]imidazol-1-yl)piperidine-2,6-dione] are 17.9 nM, 87.2%, 3.09 nM and 85.38%.
On the same counts, the results for `CCOc1cc(N2CCC(N3CCN(CCc4cccc5c4C(C)(C)C(=O)N5C4CCC(=O)NC4=O)[C@H](CO)C3)CC2)c(CC)cc1Nc1ncc(Br)c(Nc2ccc3c(=O)n(CC)ncc3c2P(C)(C)=O)n1` (stereo partly drawn) [Example 641, 3-(4-(2-((S)-4-(1-(4-((5-bromo-4-((5-(dimethylphosphoryl)-2-ethyl-1-oxo-1,2-dihydrophthalazin-6-yl)amino)pyrimidin-2-yl)amino)-5-ethoxy-2-ethylphenyl)piperidin-4-yl)-2-(hydroxymethyl)piperazin-1-yl)ethyl)-3,3-dimethyl-2-oxoindolin-1-yl)piperidine-2,6-dione] are 7.79 nM, 96.1%, 0.666 nM and 76.33%.

As a reminder, the DC50 is the concentration at which degradation of the target reaches its halfway point. Broadly, the Dmax is the largest share of the target that was removed.
